# System: NO production in BV-2 cells [NO 생성; BV-2 세포]
# Assay: Nitric oxide (NO) quantification (nitrite, Griess reaction) in LPS-activated BV-2 cells
# Assay type: cell-based
# Conditions: 20 μM, LPS 0.2 ㎍/mL, 24 h co-treatment, nitrite by Griess at 540 nm
row,Compound,NO (% of LPS)
1,"1-(N-t-Boc-아미노에틸)-4-(1-하이드록시에틸)아미노-6-(메틸티오)피라졸로[3,4-d]피리미딘 [화합물 14b]",102±4 % of LPS
2,"2-(4-(1-페닐에틸아미노)-6-(메틸티오)-1H-피라졸로[3,4-d]피리미딘-1-일)에틸카바메이트 [화합물 14g]",33.5±1.3 % of LPS
3,"N-(2-메톡시벤질)-6-(메틸설포닐)-1-페닐-1H-피라졸로[3,4-d]피리미딘-4-아민 [화합물 23d]",35±7.4 % of LPS

# Same assay, conditions: 20 μM, LPS 0.2 ㎍/mL, 24 h co-treatment, nitrite by Griess at 540 nm, 1440 min
row,Compound,NO (% of LPS)
1,"CCCCNc1nc(NC(C)c2ccccc2)c2cnn(Cc3ccccc3)c2n1 (centres unmarked) [24i, 1-벤질-N6-뷰틸-N4-(1-페닐에틸)-1H-피라졸로[3,4-d]피리미딘-4,6-디아민]",42±0.8 % of LPS
2,"CC(Nc1nc(S(C)(=O)=O)nc2c1cnn2Cc1ccccc1)c1ccccc1 (single isomer, unassigned) [화합물 23q, 1-벤질-6-(메틸설포닐)-N-(1-페닐에틸)-1H-피라졸로[3,4-d]피리미딘-4-아민]",122±2.8 % of LPS

# Same assay, conditions: Mus musculus, BV-2, 24 h, 20 μM, LPS 0.2 ㎍/mL, 24 h co-treatment, nitrite by Griess at 540 nm
row,Compound,activity at 20 µM [%]
1,"COc1ccccc1CNc1nc(SC)nc2c1cnn2C [화합물 12j, 1-메틸-4-(2-메톡시벤질)아미노-6-(메틸티오)피라졸로[3,4-d]피리미딘]",40 ± 5
2,"CSc1nc(NCc2ccc(F)cc2)c2cnn(C)c2n1 [12f, 1-메틸-4-(4-플루오로벤질)아미노-6-(메틸티오)피라졸로[3,4-d]피리미딘]",72 ± 2
3,"CSc1nc(NCc2ccccc2Cl)c2cnn(CCNC(=O)OC(C)(C)C)c2n1 [화합물 14l, 2-(4-(2-클로로벤질아미노)-6-(메틸티오)-1H-피라졸로[3,4-d]피리미딘-1-일)에틸카바메이트]",24.2 ± 1.7
4,"CCCCNc1nc(SC)nc2c1cnn2CCNC(=O)OC(C)(C)C [화합물 14i, 2-(4-(뷰틸아미노)-6-(메틸티오)-1H-피라졸로[3,4-d]피리미딘-1-일)에틸카바메이트]",54.2 ± 2.3
5,"CSc1nc(N[C@H](C)c2ccccc2)c2cnn(-c3ccccc3)c2n1 [화합물 15h, (R)-1-페닐-4-(1-페닐에틸)아미노-6-(메틸티오)피라졸로[3,4-d]피리미딘]",29 ± 4.6
6,"C=CCn1ncc2c(NCc3ccc(Cl)cc3)nc(SC)nc21 [화합물 13f, N-(4-클로로벤질)-1-알릴-6-(메틸티오)-1H-피라졸로[3,4-d]피리미딘-4-아민]",11 ± 2.9
7,"C=CCn1ncc2c(NCc3ccccc3C)nc(SC)nc21 [화합물 13h, N-(2-메틸벤질)-1-알릴-6-(메틸티오)-1H-피라졸로[3,4-d]피리미딘-4-아민]",25 ± 0.3
8,"COc1nc(SC)nc2c1cnn2-c1ccccc1 [화합물 15s, 1-페닐-4-메톡시-6-(메틸티오)피라졸로[3,4-d]피리미딘]",93 ± 2
9,"COc1ccccc1CNc1nc(SC)nc2c1cnn2CCO [화합물 27i, 2-(4-(2-메톡시벤질아미노)-6-(메틸티오)-1H-피라졸로[3,4-d]피리미딘-1-일)에탄올]",83.5 ± 3.1
10,"CSc1nc(NCc2ccccc2Cl)c2cnn(C(C)(C)C)c2n1 [화합물 17n, N-(2-클로로벤질)-1-t-뷰틸-6-(메틸티오)-1H-피라졸로[3,4-d]피리미딘-4-아민]",38 ± 2.9
11,"COc1cccc(CNc2nc(SC)nc3c2cnn3C)c1 [화합물 12k, 1-메틸-4-(3-메톡시벤질)아미노-6-(메틸티오)피라졸로[3,4-d]피리미딘]",94 ± 5
12,"COc1cccc(CCn2ncc3c(Cl)nc(SC)nc32)c1 [5j, 1-(3-메톡시펜에틸)-4-클로로-6-(메틸티오)-1H-피라졸로[3,4-d]피리미딘]",5 ± 49.7
13,"CSc1nc(NCc2ccc(Cl)cc2)c2cn[nH]c2n1 [6p, 4-(4-클로로벤질)아미노-6-(메틸티오)피라졸로[3,4-d]피리미딘]",50 ± 23
14,"CSc1nc(NC(C)c2ccc(C)cc2)c2cnn(-c3ccc(C)cc3)c2n1 (centres unmarked) [화합물 21i, 6-(메틸티오)-1-p-톨릴-N-(1-p-톨릴에틸)-1H-피라졸로[3,4-d]피리미딘-4-아민]",57 ± 1
15,"CSc1nc(N2CCCCC2)c2cnn(-c3ccccc3)c2n1 [화합물 15m, 1-페닐-4-피페리디노-6-(메틸티오)피라졸로[3,4-d]피리미딘]",92 ± 4
16,"CSc1nc(NCc2ccc(C)cc2)c2cnn(Cc3ccccc3)c2n1 [화합물 16ze, N-(4-메틸벤질)-1-벤질-6-(메틸티오)-1H-피라졸로[3,4-d]피리미딘-4-아민]",51 ± 3.4
17,"COc1ccc([C@H](C)Nc2nc(S(C)(=O)=O)nc3c2cnn3-c2ccccc2)cc1 [화합물 23h, N-((S)-1-(4-메톡시페닐)에틸)-6-(메틸설포닐)-1-페닐-1H-피라졸로[3,4-d]피리미딘-4-아민]",41 ± 5.7
18,"COc1cccc(CNc2nc(SC)nc3c2cnn3CCNC(=O)OC(C)(C)C)c1 [화합물 14d, 1-(N-t-Boc-아미노에틸)-4-(3-메톡시벤질)아미노-6-(메틸티오)피라졸로[3,4-d]피리미딘]",49 ± 12
19,"COc1ccccc1CCn1ncc2c(NCc3ccccc3)nc(SC)nc21 [화합물 19e, 1-(2-메톡시펜에틸)-N-벤질-6-(메틸티오)-1H-피라졸로[3,4-d]피리미딘-4-아민]",60 ± 5.9
20,"CSc1nc(NCc2ccc(C)cc2)c2cnn(-c3ccc(C)cc3)c2n1 [화합물 21f, N-(4-메틸벤질)-6-(메틸티오)-1-p-톨릴-1H-피라졸로[3,4-d]피리미딘-4-아민]",49 ± 5.9
21,"C[S+]([O-])c1nc(NCc2ccccc2Cl)c2cnn(-c3ccccc3)c2n1 (centres unmarked) [화합물 22a, N-(2-클로로벤질)-6-(메틸설파이닐)-1-페닐-1H-피라졸로[3,4-d]피리미딘-4-아민]",24 ± 12.9
22,"CSc1nc(NC(C)c2ccc(C)cc2)c2cnn(Cc3ccccc3)c2n1 (centres unmarked) [화합물 16za, 1-벤질-6-(메틸티오)-N-(1-p-톨릴에틸)-1H-피라졸로[3,4-d]피리미딘-4-아민]",40 ± 1.3
23,"CSc1nc(NCCN2CCCCC2)c2cn[nH]c2n1 [6g, 4-(2-피페리딘-1-일)에틸아미노-6-(메틸티오)피라졸로[3,4-d]피리미딘]",102 ± 6
24,"CCCCNc1nc([S+](C)[O-])nc2c1cnn2-c1ccccc1 (centres unmarked) [화합물 22d, N-뷰틸-6-(메틸설파이닐)-1-페닐-1H-피라졸로[3,4-d]피리미딘-4-아민]",46 ± 8.3
25,"C=CCn1ncc2c(NCc3cccc(OC)c3)nc(SC)nc21 [화합물 13j, N-(3-메톡시벤질)-1-알릴-6-(메틸티오)-1H-피라졸로[3,4-d]피리미딘-4-아민]",87 ± 0.2

row,Compound,activity at 20 µM [%]
1,"CSc1nc(SCC(C)C)c2cnn(Cc3ccccc3)c2n1 [화합물 16n, 1-벤질-4-(이소부틸티오)-6-(메틸티오)-1H-피라졸로[3,4-d]피리미딘]",56 ± 4.5
2,"CSc1nc(N[C@H](C)c2ccccc2)c2cn[nH]c2n1 [6k, (R)-4-(1-페닐에틸)아미노-6-(메틸티오)피라졸로[3,4-d]피리미딘]",16 ± 17
3,"CSc1nc(NCc2ccccc2)c2cnn(CCNC(=O)OC(C)(C)C)c2n1 [화합물 14a, 1-(N-t-Boc-아미노에틸)-4-벤질아미노-6-(메틸티오)피라졸로[3,4-d]피리미딘]",58 ± 6
4,"COc1ccc([C@H](C)Nc2nc(SC)nc3c2cnn3Cc2ccccc2)cc1 [화합물 16zb, 1-벤질-N-((S)-1-(4-메톡시페닐)에틸)-6-(메틸티오)-1H-피라졸로[3,4-d]피리미딘-4-아민]",49 ± 2.4
5,"CSc1nc(Sc2ccc(C)cc2)c2cnn(Cc3ccccc3)c2n1 [화합물 16p, 4-(p-톨릴티오)-1-벤질-6-(메틸티오)-1H-피라졸로[3,4-d]피리미딘]",34 ± 1.7
6,"CSc1nc(N(CCO)CCO)c2cn[nH]c2n1 [6o, 4-(디-2-하이드로에틸)아미노-6-(메틸티오)피라졸로[3,4-d]피리미딘]",106 ± 10
7,"C=CCNc1nc(SC)nc2c1cnn2CC=C [화합물 13b, 1-알릴-4-알릴아미노-6-(메틸티오)피라졸로[3,4-d]피리미딘]",86 ± 9
8,"CSc1nc(NCCO)c2cnn(-c3ccccc3)c2n1 [화합물 15d, 1-페닐-4-(1-하이드록식에틸)아미노-6-(메틸티오)피라졸로[3,4-d]피리미딘]",68 ± 7
9,"COc1ccc(CNc2nc(S(C)(=O)=O)nc3c2cnn3CCc2ccccc2OC)cc1 [화합물 23za, 1-(2-메톡시펜에틸)-N-(4-메톡시벤질)-6-(메틸설포닐)-1H-피라졸로[3,4-d]피리미딘-4-아민]",56 ± 3.6
10,"C=CCNc1nc(SC)nc2c1cnn2CCc1cccc(OC)c1 [화합물 18i, 1-(3-메톡시펜에틸)-N-알릴-6-(메틸티오)-1H-피라졸로[3,4-d]피리미딘-4-아민]",78 ± 4.4
11,"COc1cccc(CNc2nc(SC)nc3c2cnn3-c2ccc(C)cc2)c1 [화합물 21d, N-(3-메톡시벤질)-6-(메틸티오)-1-p-톨릴-1H-피라졸로[3,4-d]피리미딘-4-아민]",42 ± 5.2
12,"CSc1nc(NC(C)(C)CO)c2cnn(CCNC(=O)OC(C)(C)C)c2n1 [화합물 14h, 2-(4-(1-하이드록시-2-메틸프로판-2-일아미노)-6-(메틸티오)-1H-피라졸로[3,4-d]피리미딘-1-일)에틸카바메이트]",78.9 ± 1.6
13,"Cc1ccccc1CNc1nc(S(C)(=O)=O)nc2c1cnn2-c1ccc(F)cc1 [화합물 23k, N-(2-메틸벤질)-1-(4-플루오로페닐)-6-(메틸설포닐)-1H-피라졸로[3,4-d]피리미딘-4-아민]",35 ± 4.6
14,"CC(Nc1nc(S(C)(=O)=O)nc2c1cnn2Cc1ccccc1)c1ccccc1 (centres unmarked) [화합물 23p, 1-벤질-6-(메틸설포닐)-N-(1-페닐에틸)-1H-피라졸로[3,4-d]피리미딘-4-아민]",40 ± 4.9
15,"CSc1nc(Cl)c2cnn(Cc3ccccc3)c2n1 [5f, 1-벤질-4-클로로-6-(메틸티오)피라졸로[3,4-d]피리미딘]",69 ± 3
16,"CSc1nc(NCCCn2ccnc2)c2cn[nH]c2n1 [6m, 4-(3-이미다졸-1-일)프로판아미노-6-(메틸티오)피라졸로[3,4-d]피리미딘]",97 ± 6
17,"CSc1nc(Sc2ccc(C)cc2)c2cnn(-c3ccccc3)c2n1 [화합물 15y, 4-(p-톨릴티오)-6-(메틸티오)-1-페닐-1H-피라졸로[3,4-d]피리미딘]",85 ± 2.3
18,"CSc1nc(NCc2ccccc2C)c2cnn(-c3ccccc3)c2n1 [화합물 15o, 1-페닐-4-(2-메틸벤질)아미노-6-(메틸티오)피라졸로[3,4-d]피리미딘]",57 ± 1
19,"CSc1nc(NCc2ccc(F)cc2)c2cnn(CCO)c2n1 [화합물 27b, 1-(1-하이드록시에틸)-4-(4-플루오로벤질)벤질아미노-6-(메틸티오)피라졸로[3,4-d]피리미딘]",73 ± 10
20,"CCCCNc1nc(S(C)(=O)=O)nc2c1cnn2-c1ccccc1 [화합물 23a, N-뷰틸-6-(메틸설포닐)-1-페닐-1H-피라졸로[3,4-d]피리미딘-4-아민]",40 ± 7.1
21,"CSc1nc(NCc2ccccc2C)c2cnn(-c3ccc(C)cc3)c2n1 [화합물 21c, N-(2-메틸벤질)-6-(메틸티오)-1-p-톨릴-1H-피라졸로[3,4-d]피리미딘-4-아민]",47 ± 6.8
22,"C=CCNc1nc(SC)nc2c1cnn2CCc1ccccc1OC [화합물 19f, 1-(2-메톡시펜에틸)-N-알릴-6-(메틸티오)-1H-피라졸로[3,4-d]피리미딘-4-아민]",75 ± 8.7
23,"C=CCn1ncc2c(NCc3ccc(F)cc3)nc(SC)nc21 [화합물 13d, 1-알릴-4-(4-플루오로벤질)아미노-6-(메틸티오)피라졸로[3,4-d]피리미딘]",14 ± 39
24,"C=CCNc1nc(SC)nc2c1c(-c1ccccc1)nn2Cc1ccccc1 [32d, 1-벤질-3-페닐-4-알릴아미노-6-(메틸티오)피라졸로[3,4-d]피리미딘]",46 ± 2
25,"CSc1nc(NCc2ccccc2C)c2cnn(-c3ccc(F)cc3)c2n1 [화합물 20c, N-(2-메틸벤질)-1-(4-프루오로페닐)-6-(메틸티오)-1H-피라졸로[3,4-d]피리미딘-4-아민]",47 ± 8

# Same assay, conditions: Mus musculus, BV-2, 24 h, 30 μM, LPS 0.2 ㎍/mL, 24 h co-treatment, nitrite by Griess at 540 nm
row,Compound,activity at 30 µM [%]
1,"CCOc1nc(SC)nc2[nH]ncc12 [10b, 4-에톡시-6-(메틸티오)피라졸로[3,4-d]피리미딘]",93 ± 9

# Source: patent KR20130112248A, “피라졸로피리미딘 유도체 화합물, 이를 포함하는 산화질소 생성 억제용 조성물 및 뇌신경 질환 예방 및 치료용 약학적 조성물” (한국과학기술연구원, priority 2012, dated 2013)
